The text below walks through data of ChEMBL document CHEMBL4251581, “Synthesis and antimycobacterial activity of triterpeni≿ A-ring azepanes” (Eur J Med Chem, 2018).

Converted amounts (≈) assume the structure as drawn.

The first test relates to Mycobacterium tuberculosis. Put plainly: Antimycobacterial activity against Mycobacterium tuberculosis H37Rv. In kind it is functional, organism-based.
Take `N[C@@H]1CONC1=O` [CYCLOSERINE]: the IC50 turned out to be 20.8 µM, the 90% effect concentration (IC90) was found to be 33.1 µM and it took 50 µM (≈ 5.1 µg/mL) to inhibit growth (MIC).

Take `COc1ccc(/C=C/C(=O)OC[C@]23CCC(C)(C)C[C@@H]2C2=CC[C@@H]4[C@@]5(C)CCCNC(C)(C)[C@@H]5CC[C@@]4(C)[C@]2(C)CC3)cc1`: the IC50 was above 100 µM, the IC90 is above 100 µM and the MIC was above 100 µM.

As for `NNC(=O)c1ccncc1` [ISONIAZID], the IC50 was 0.12 µM, it took 0.19 µM to reach the 90% level (IC90) and the MIC came out at 0.31 µM (≈ 0.0425 µg/mL).

Consider `COC(=O)[C@]12CC[C@@H](C(C)CO)[C@@H]1[C@H]1CC[C@@H]3[C@@]4(C)CCC(=O)NC(C)(C)[C@@H]4CC[C@@]3(C)[C@]1(C)CC2` (some centres not stated), for which the half-maximal inhibitory concentration (IC50) was 5.7 µM, the concentration for an effect of 90% (IC90) was found to be 18.3 µM and the MIC is 12.5 µM (≈ 6.27 µg/mL).

As to `COC(=O)[C@]12CC[C@@H](C(C)COC(=O)/C=C/c3ccccc3)[C@@H]1[C@H]1CC[C@@H]3[C@@]4(C)CCC(=O)NC(C)(C)[C@@H]4CC[C@@]3(C)[C@]1(C)CC2` (some centres not stated), the IC50 was above 200 µM, the concentration for an effect of 90% (IC90) is above 200 µM and the MIC was above 200 µM.

In turn, `COC(=O)[C@]12CC[C@@H](C(C)COC(=O)CCC(=O)O)[C@@H]1[C@H]1CC[C@@H]3[C@@]4(C)CCC(=O)NC(C)(C)[C@@H]4CC[C@@]3(C)[C@]1(C)CC2` (some centres not stated) yielded a half-maximal inhibitory concentration (IC50) of 23 µM, an IC90 of 27 µM and a minimum inhibitory concentration (MIC) of 28 µM (≈ 16.9 µg/mL).

`CC1(C)CC[C@@]23CC[C@]4(C)C(OC2)(C(=O)C[C@@H]2[C@@]5(C)CCCNC(C)(C)[C@@H]5CC[C@]24C)[C@H]3C1` gave a 50% inhibitory concentration (IC50) of 11 µM, an IC90 of 53 µM and an MIC of 29 µM (≈ 13.2 µg/mL).

Regarding `CC(=O)[C@@H]1CC[C@]2(CO)CC[C@]3(C)[C@H](CC[C@@H]4[C@@]5(C)CCCNC(C)(C)[C@@H]5CC[C@]43C)[C@@H]12`, the IC50 is 17.7 µM, the 90% effect level (IC90) was put at 56.9 µM and it took 50 µM (≈ 22.2 µg/mL) to inhibit growth (MIC).

`CC1(C)CC[C@]2(COC(=O)CCC(=O)O)CC[C@]3(C)C(=CC[C@@H]4[C@@]5(C)CCCNC(C)(C)[C@@H]5CC[C@]43C)[C@H]2C1` gave a half-inhibitory concentration (IC50) of 20.6 µM, an IC90 of 82.5 µM and a minimum inhibitory concentration (MIC) of 100 µM (≈ 54.2 µg/mL).

With `COC(=O)[C@]12CC[C@@H](C)[C@H](C)[C@@H]1C1=CC[C@@H]3[C@@]4(C)CCC(=O)NC(C)(C)[C@@H]4CC[C@@]3(C)[C@]1(C)CC2`, the MIC was above 10 µM.

`NCC[C@H](O)C(=O)N[C@@H]1C[C@H](N)[C@@H](O[C@H]2O[C@H](CN)[C@@H](O)[C@H](O)[C@H]2O)[C@H](O)[C@H]1O[C@H]1O[C@H](CO)[C@@H](O)[C@H](N)[C@H]1O` [AMIKACIN] returned an IC50 of 0.08 µM, a 90% effect concentration (IC90) of 0.09 µM and an MIC of 0.16 µM (≈ 0.0937 µg/mL).

The molecule `C/C(=N\O)[C@@H]1CC[C@]2(CO)CC[C@]3(C)[C@H](CC[C@@H]4[C@@]5(C)CCCNC(C)(C)[C@@H]5CC[C@]43C)[C@@H]12` displayed an IC50 of 43 µM, a 90% effect concentration (IC90) of 41 µM and a minimum inhibitory concentration (MIC) of 43 µM (≈ 19.7 µg/mL).

Take `C=C(C)[C@@H]1CC[C@]2(COC(=O)CCC(=O)O)CC[C@]3(C)[C@H](CC[C@@H]4[C@@]5(C)CCCNC(C)(C)[C@@H]5CC[C@]43C)[C@@H]12`: half-maximal inhibition (IC50) required 40 µM, the IC90 worked out at 70 µM and the minimal inhibitory concentration (MIC) turned out to be 61 µM (≈ 33.1 µg/mL).

In turn, `C[C@H]1[C@H](C)CC[C@]2(COC(=O)CCC(=O)O)CC[C@]3(C)C(=CC[C@@H]4[C@@]5(C)CCCNC(C)(C)[C@@H]5CC[C@]43C)[C@@H]12` gave an IC50 of 92 µM, a 90% effect concentration (IC90) of 110 µM and an MIC of 111 µM (≈ 60.1 µg/mL).

`C=C(C)[C@@H]1CC[C@]2(CO)CC[C@]3(C)[C@H](CC[C@@H]4[C@@]5(C)CCCN(CCCN)C(C)(C)[C@@H]5CC[C@]43C)[C@@H]12`: the minimum inhibitory concentration (MIC) is above 10 µM.

Regarding `C[C@H]1[C@H](C)CC[C@]2(COC(=O)/C=C/c3ccccc3)CC[C@]3(C)C(=CC[C@@H]4[C@@]5(C)CCCNC(C)(C)[C@@H]5CC[C@]43C)[C@@H]12`, half-maximal inhibition (IC50) required 3.8 µM, the 90% effect level (IC90) was put at 5.2 µM and 6.25 µM (≈ 3.57 µg/mL) was the least that counted as inhibitory (MIC).

Turning to `COC(=O)[C@]12CCC(C)(C)C[C@@H]1C1=CC[C@@H]3[C@@]4(C)CCC(=O)NC(C)(C)[C@@H]4CC[C@@]3(C)[C@]1(C)CC2`, the MIC was above 10 µM.

In the case of `CC(COC(=O)/C=C/c1ccccc1)[C@@H]1CC[C@]2(COC(=O)/C=C/c3ccccc3)CC[C@]3(C)[C@H](CC[C@@H]4[C@@]5(C)CCCNC(C)(C)[C@@H]5CC[C@]43C)[C@@H]12` (some centres not stated), the IC50 is above 200 µM, the 90% effect concentration (IC90) is above 200 µM and inhibition of growth (MIC) required 200 µM (≈ 144 µg/mL).

For `C=C(C)[C@@H]1CC[C@]2(COC(=O)/C=C/c3ccccc3)CC[C@]3(C)[C@H](CC[C@@H]4[C@@]5(C)CCCNC(C)(C)[C@@H]5CC[C@]43C)[C@@H]12`, the concentration for half-maximal inhibition (IC50) was 6.7 µM, the IC90 came to 7.7 µM and the MIC stood at 10 µM (≈ 5.72 µg/mL).

Molecule `C[C@H]1[C@H](C)CC[C@]2(CO)CC[C@]3(C)C(=CC[C@@H]4[C@@]5(C)CCCNC(C)(C)[C@@H]5CC[C@]43C)[C@@H]12` returned a 50% inhibitory concentration (IC50) of 4.9 µM, an IC90 of 14.5 µM and an MIC of 12.5 µM (≈ 5.52 µg/mL).

Molecule `C=C(C)[C@@H]1CC[C@]2(C(=O)OC)CC[C@]3(C)[C@H](CC[C@@H]4[C@@]5(C)CCC(=O)NC(C)(C)[C@@H]5CC[C@]43C)[C@@H]12` registered a minimum inhibitory concentration (MIC) above 10 µM.

The molecule `CCc1nc(N)nc(N)c1-c1ccc(Cl)cc1` [PYRIMETHAMINE] returned an IC50 of 23.3 µM, a 90% effect concentration (IC90) of 35.9 µM and a minimal inhibitory concentration (MIC) of 50 µM (≈ 12.4 µg/mL).

For `COC(=O)[C@]12CCC(C)(C)C[C@@H]1C1/C(=N/O)C[C@@H]3[C@@]4(C)CCC(=O)NC(C)(C)[C@@H]4CC[C@@]3(C)[C@]1(C)CC2` (some centres not stated), half-maximal inhibition (IC50) was put at 54 µM, the IC90 worked out at 97 µM and inhibition of growth (MIC) required 97 µM (≈ 49.9 µg/mL).

The molecule `CC[C@@H](CO)NCCN[C@@H](CC)CO` [ETHAMBUTOL] displayed a concentration for half-maximal inhibition (IC50) of 1.25 µM, an IC90 of 1.78 µM and an MIC of 6.25 µM (≈ 1.28 µg/mL).

Turning to `CO[C@H]1/C=C/O[C@@]2(C)Oc3c(C)c(O)c4c(O)c(c(/C=N/N5CCN(C)CC5)c(O)c4c3C2=O)NC(=O)/C(C)=C\C=C\[C@H](C)[C@H](O)[C@@H](C)[C@@H](O)[C@@H](C)[C@H](OC(C)=O)[C@@H]1C` [RIFAMPIN], the midpoint of inhibition, the IC50, lay at 0.02 µM; the IC90 worked out at 0.03 µM; the MIC was found to be 0.04 µM (≈ 0.0329 µg/mL).

Take `CC(CO)[C@@H]1CC[C@]2(CO)CC[C@]3(C)[C@H](CC[C@@H]4[C@@]5(C)CCCNC(C)(C)[C@@H]5CC[C@]43C)[C@@H]12` (some centres not stated): the IC50 amounted to 4.6 µM, the 90% effect level (IC90) was put at 14.1 µM and the minimal inhibitory concentration (MIC) is 12.5 µM (≈ 5.75 µg/mL).

On to `C=C(C)[C@@H]1CC[C@]2(COC(=O)/C=C/c3ccc(OC)cc3)CC[C@]3(C)[C@H](CC[C@@H]4[C@@]5(C)CCCNC(C)(C)[C@@H]5CC[C@]43C)[C@@H]12`, for which 160 µM corresponded to half-maximal inhibition (IC50), the IC90 is above 200 µM and the minimum inhibitory concentration (MIC) was above 200 µM.

A further test concerns Mycobacterium tuberculosis. The test can be described thus: Bactericidal activity against Mycobacterium tuberculosis H37Rv. It counts as functional.
Molecule `C=C(C)[C@@H]1CC[C@]2(COC(=O)CCC(=O)O)CC[C@]3(C)[C@H](CC[C@@H]4[C@@]5(C)CCCNC(C)(C)[C@@H]5CC[C@]43C)[C@@H]12` came in with a minimum bactericidal concentration (MBC) of 11 µg/mL (≈ 20.3 µM).

Turning to `C[C@H]1[C@H](C)CC[C@]2(COC(=O)/C=C/c3ccccc3)CC[C@]3(C)C(=CC[C@@H]4[C@@]5(C)CCCNC(C)(C)[C@@H]5CC[C@]43C)[C@@H]12`, the MBC turned out to be 14 µg/mL (≈ 24.5 µM).

In the case of `C=C(C)[C@@H]1CC[C@]2(COC(=O)/C=C/c3ccccc3)CC[C@]3(C)[C@H](CC[C@@H]4[C@@]5(C)CCCNC(C)(C)[C@@H]5CC[C@]43C)[C@@H]12`, the MBC was 4 µg/mL (≈ 6.99 µM).

`C[C@H]1[C@H](C)CC[C@]2(CO)CC[C@]3(C)C(=CC[C@@H]4[C@@]5(C)CCCNC(C)(C)[C@@H]5CC[C@]43C)[C@@H]12` gave a minimal bactericidal concentration (MBC) of 20 µg/mL (≈ 45.3 µM).

As a reminder, the IC50 is the concentration that inhibits the measured activity by half. Usually IC90 stands for the point of the concentration-response curve where the effect stands at 90%. What is called MIC is the lowest concentration found to suppress growth. A word on the MBC: it is the lowest tested concentration that kills the bacteria rather than only halting them.
